Data as given in patent publication US20220106304A1, “Transcription Factor BRN2 Inhibitory Compounds as Therapeutics and Methods for Their Use” (The University of British Columbia, priority 2018, published 2022).

Key:
[1] = target: T1, BRN2 (Homo sapiens, UniProt P20265); test: cell-based; conditions: negative = activation; for inhibition at 10 µM: read-out: % BRN2 Inhibition (10 μM), 10 μM compound, 24 hours, 42D^ENZR cells stably expressing BRN2-luciferase reporter; for inhibition at 30 µM: read-out: % BRN2 Inhibition (30 μM), 30 μM compound, 24 hours, 42D^ENZR cells stably expressing BRN2-luciferase reporter
T1 sequence (P20265 1-443): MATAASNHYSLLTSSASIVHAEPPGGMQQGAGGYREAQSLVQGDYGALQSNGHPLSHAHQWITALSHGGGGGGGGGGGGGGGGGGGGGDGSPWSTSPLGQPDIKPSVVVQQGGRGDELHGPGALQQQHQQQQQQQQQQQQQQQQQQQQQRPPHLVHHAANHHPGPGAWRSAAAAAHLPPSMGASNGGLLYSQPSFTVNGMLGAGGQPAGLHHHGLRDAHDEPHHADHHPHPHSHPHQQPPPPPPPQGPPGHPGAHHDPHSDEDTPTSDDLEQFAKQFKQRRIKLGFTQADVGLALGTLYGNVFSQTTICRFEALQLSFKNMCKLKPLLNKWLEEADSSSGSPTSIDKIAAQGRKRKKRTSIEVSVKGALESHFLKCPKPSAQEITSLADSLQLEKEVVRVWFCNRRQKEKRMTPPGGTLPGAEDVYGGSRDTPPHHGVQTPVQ

[2] = Liver microsome metabolic stability, MLM; assay type: in vitro ADME; conditions: MLM (single value or second of two), 1 μM compound, 0.25 mg/mL protein; for Met Stab % (60 mins HLM/MLM): percent remaining at 60 min, 1 mM NADPH; for half-life at 1 µM: mouse, liver microsomes, pH 7.4, read-out: T1/2 in (mins HLM/MLM)
Procedure, shortened: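 Compound (1 μM) incubated at 37 °C with mouse or human liver microsomes (0.25 mg/mL) in 50 mM phosphate pH 7.4 with 1 mM NADPH; samples quenched at 0–60 min. Parent loss by LC-MS/MS gives t½ (0.693/k) and CL'int scaled by 45 mg protein/g liver.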

Row | Compound | inhibition at 10 µM [1] | inhibition at 30 µM [1] | Met Stab % (60 mins HLM/MLM) [2] | half-life at 1 µM [2]
1 | FC(F)(F)c1ccc2cc(-c3csc(-c4ccco4)n3)oc2c1 [VPC-18-51, 2-(Furan-2-yl)-4-(6-(trifluoromethyl)benzofuran-2-yl)thiazole] | 62.5% | 71.4% | 7% | 16 min
2 | Clc1cc2cc(-c3csc(-c4ccc[nH]4)n3)oc2cc1Cl [VPC-18-142] | 29.1% | 53.6% | 17% | 26 min
